Measured values reported in patent US12655116B2, “Substituted isophthalic acid diamides” (Bayer Aktiengesellschaft, priority 2020, dated 2026).

Legend:
ABUTH [1] = experiment: Pre-emergence herbicidal action against ABUTH; assay type: in vivo, Abutilon theophrasti
Method in brief: (§1)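 Seeds sown in sandy loam, soil-covered; compound sprayed on soil surface pre-emergence. Application: WP/EC, 600–800 l/ha, 0.2% wetting agent. Readout: visual % damage at 3 weeks.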

ALOMY [2] = experiment: Pre-emergence herbicidal action against ALOMY; assay type: in vivo, Alopecurus myosuroides
Method in brief: as §1

AMARE [3] = experiment: Pre-emergence herbicidal action against AMARE; assay type: in vivo, Amaranthus retroflexus
Method in brief: as §1

AVEFA [4] = experiment: Pre-emergence herbicidal action against AVEFA; assay type: in vivo, Avena fatua; conditions: pre-emergence
Method in brief: as §1

ECHCG [5] = experiment: Pre-emergence herbicidal action against ECHCG; assay type: in vivo, Echinochloa crus-galli
Method in brief: as §1

LOLRI = experiment: Pre-emergence herbicidal action against LOLRI; assay type: in vivo, Lolium rigidum; conditions: 80 g/ha
Method in brief: as §1

MATIN [6] = experiment: Pre-emergence herbicidal action against MATIN; assay type: in vivo, Matricaria inodora
Method in brief: as §1

PHBPU [7] = experiment: Pre-emergence herbicidal action against PHBPU; assay type: in vivo, Pharbitis purpurea; conditions: dosage 80 g/ha
Method in brief: as §1

POLCO = experiment: Pre-emergence herbicidal action against POLCO; assay type: in vivo, Polygonum convolvulus; conditions: dosage 80 g/ha
Method in brief: as §1

SETVI [8] = experiment: Pre-emergence herbicidal action against SETVI; assay type: in vivo, Setaria viridis
Method in brief: as §1

VERPE [9] = experiment: Pre-emergence herbicidal action against VERPE; assay type: in vivo, Veronica persica; conditions: dosage 80 g/ha
Method in brief: as §1

VIOTR [10] = experiment: Pre-emergence herbicidal action against VIOTR; assay type: in vivo, Viola tricolor
Method in brief: as §1

DIGSA [11] = experiment: Pre-emergence herbicidal action against DIGSA; assay type: in vivo, Digitaria sanguinalis
Method in brief: as §1

ABUTH [12] = experiment: Post-emergence herbicidal action against ABUTH; assay type: in vivo, Abutilon theophrasti; conditions: visual assessment about 3 weeks after treatment vs untreated controls
Method in brief: (§2)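 Sandy loam, greenhouse; treatment 2–3 weeks after sowing, one-leaf stage. Aqueous suspension or emulsion from WP/EC sprayed on foliage (600–800 l/ha, 0.2% wetting agent). Readout: visual % action, ~3 weeks.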

ALOMY [13] = experiment: Post-emergence herbicidal action against ALOMY; assay type: in vivo, Alopecurus myosuroides; conditions: visual assessment about 3 weeks after treatment vs untreated controls
Method in brief: as §2

AMARE [14] = experiment: Post-emergence herbicidal action against AMARE; assay type: in vivo, Amaranthus retroflexus; conditions: 20 g/ha, visual assessment about 3 weeks after treatment, 100% = plants have died, 0% = like control plants
Method in brief: as §2

AVEFA [15] = experiment: Post-emergence herbicidal action against AVEFA; assay type: in vivo, Avena fatua; conditions: visual assessment about 3 weeks after treatment, 100% = plants have died, 0% = like control plants
Method in brief: as §2

ECHCG [16] = experiment: Post-emergence herbicidal action against ECHCG; assay type: in vivo, Echinochloa crus-galli
Method in brief: as §2

MATIN [17] = experiment: Post-emergence herbicidal action against MATIN; assay type: in vivo, Matricaria inodora; conditions: dosage 20 g/ha
Method in brief: as §2

PHBPU [18] = experiment: Post-emergence herbicidal action against PHBPU; assay type: in vivo, Pharbitis purpurea; conditions: dosage 20 g/ha
Method in brief: as §2

SETVI [19] = experiment: Post-emergence herbicidal action against SETVI; assay type: in vivo, Setaria viridis
Method in brief: as §2

VERPE [20] = experiment: Post-emergence herbicidal action against VERPE; assay type: in vivo, Veronica persica
Method in brief: as §2

VIOTR [21] = experiment: Post-emergence herbicidal action against VIOTR; assay type: in vivo, Viola tricolor
Method in brief: as §2

DIGSA [22] = experiment: Post-emergence herbicidal action against DIGSA; assay type: in vivo, Digitaria sanguinalis
Method in brief: as §2

[23] = 80 g/ha, scored visually after 3 weeks vs untreated controls (100% = plants have died, 0% = like control plants)
[24] = Setaria viridis, 504 h, dosage 20 g/ha

Cn1nnnc1NC(=O)c1ccc(C(F)(F)F)c(C(=O)NCC2CC2)c1Cl [Example 1-132]
100%: Pre-emergence action against ABUTH (herbicidal activity) (ABUTH [1]; [23]) | Pre-emergence action against ABUTH (herbicidal activity in percent) (ABUTH [1]; dosage 20 g/ha, scored visually after 3 weeks vs untreated controls, 100% = plants have died, 0% = like control plants) | Pre-emergence action against ALOMY (herbicidal activity) (ALOMY [2]; 80 g/ha, pre-emergence, scored visually after 3 weeks vs untreated controls (100% = plants have died, 0% = like control plants)) | Pre-emergence action against AMARE in % (AMARE [3]; 20 g/ha, scored visually after 3 weeks vs untreated controls, 100% = plants have died, 0% = like control plants) | Pre-emergence action against AMARE in % (AMARE [3]; [23]) | Pre-emergence action against AVEFA in % (AVEFA [4]; 80 g/ha) | Pre-emergence action against ECHCG in % (ECHCG [5]; 80 g/ha) | Pre-emergence action against MATIN in % (MATIN [6]; dosage 20 g/ha) | Pre-emergence action against MATIN in % (MATIN [6]; dosage 80 g/ha) | Pre-emergence action against SETVI in % (SETVI [8]; dosage 80 g/ha) | Pre-emergence action against VERPE in % (VERPE [9]) | Pre-emergence action against VIOTR in % (VIOTR [10]; dosage 20 g/ha) | Pre-emergence action against VIOTR in % (VIOTR [10]; dosage 80 g/ha) | Pre-emergence action against DIGSA in % (DIGSA [11]; dosage 20 g/ha) | Pre-emergence action against DIGSA in % (DIGSA [11]; dosage 80 g/ha) | Post-emergence action at 20 g/ha against AMARE in % (AMARE [14])
80%: Pre-emergence action against ALOMY (ALOMY [2]; 20 g/ha, scored visually after 3 weeks, 100% = plants have died, 0% = like control plants) | Pre-emergence action against LOLRI in % (LOLRI) | Pre-emergence action against PHBPU in % (PHBPU [7]) | Pre-emergence action against POLCO in % (POLCO) | Pre-emergence action against SETVI in % (SETVI [8]; dosage 20 g/ha) | Post-emergence action against ABUTH in % (ABUTH [12]; dosage 20 g/ha) | Post-emergence action against ALOMY in % (ALOMY [13]; dosage 5 g/ha) | Post-emergence action at 5 g/ha against AVEFA in % (AVEFA [15]; 5 g/ha) | Post-emergence action against MATIN in % (MATIN [17]) | Post-emergence action against VIOTR in % (VIOTR [21]; 5 g/ha)
90%: Pre-emergence action against ECHCG in % (ECHCG [5]; 20 g/ha) | Post-emergence action against ALOMY in % (ALOMY [13]; dosage 20 g/ha) | Post-emergence action at 20 g/ha against AVEFA in % (AVEFA [15]; 20 g/ha) | Post-emergence action against ECHCG in % (ECHCG [16]; dosage 20 g/ha) | Post-emergence action against PHBPU in % (PHBPU [18]) | Post-emergence action against SETVI in % (SETVI [19]; dosage 20 g/ha) | Post-emergence action against VERPE in % (VERPE [20]; 5 g/ha) | Post-emergence action against VERPE in % (VERPE [20]; 20 g/ha) | Post-emergence action against VIOTR in % (VIOTR [21]; 20 g/ha) | Post-emergence action against DIGSA (DIGSA [22]; 20 g/ha)

CNC(=O)c1c(C(F)F)ccc(C(=O)Nc2nnnn2C)c1Br [Example 1-225]
90%: pest or weed control at 20 g/ha (ECHCG [5]; Echinochloa crus-galli, 504 h, 20 g/ha) | pest or weed control at 20 g/ha (MATIN [6]; Tripleurospermum inodorum, 504 h, dosage 20 g/ha) | pest or weed control at 80 g/ha (POLCO; Fallopia convolvulus, 504 h) | pest or weed control at 20 g/ha (SETVI [8]; [24]) | pest or weed control at 80 g/ha (DIGSA [11]; Digitaria sanguinalis, 504 h, dosage 80 g/ha) | pest or weed control at 20 g/ha (ALOMY [13]; Alopecurus myosuroides, 504 h, dosage 20 g/ha) | pest or weed control at 5 g/ha (ECHCG [16]; Echinochloa crus-galli, 504 h, dosage 5 g/ha) | pest or weed control at 5 g/ha (SETVI [19]; Setaria viridis, 504 h, dosage 5 g/ha) | pest or weed control at 20 g/ha (VERPE [20]; Veronica persica, 504 h, 20 g/ha) | pest or weed control at 5 g/ha (DIGSA [22]; Digitaria sanguinalis, 504 h, 5 g/ha) | pest or weed control at 20 g/ha (DIGSA [22]; Digitaria sanguinalis, 504 h, 20 g/ha)
80%: pest or weed control at 80 g/ha (ABUTH [1]; Abutilon theophrasti, 504 h, 80 g/ha, scored visually after 3 weeks vs untreated controls (100% = plants have died, 0% = like control plants)) | pest or weed control at 80 g/ha (AVEFA [4]; Avena fatua, 504 h, 80 g/ha) | pest or weed control at 20 g/ha (AVEFA [4]; Avena fatua, 504 h, 20 g/ha, scored visually after 3 weeks, 100% = plants have died, 0% = like control plants) | pest or weed control at 80 g/ha (LOLRI; Lolium rigidum, 504 h) | pest or weed control at 80 g/ha (VERPE [9]; Veronica persica, 504 h) | pest or weed control at 5 g/ha (ABUTH [12]; Abutilon theophrasti, 504 h, dosage 5 g/ha) | pest or weed control at 20 g/ha (ABUTH [12]; Abutilon theophrasti, 504 h, dosage 20 g/ha) | pest or weed control at 20 g/ha (AVEFA [15]; Avena fatua, 504 h, 20 g/ha) | pest or weed control at 20 g/ha (PHBPU [18]; Ipomoea purpurea, 504 h) | pest or weed control at 20 g/ha (VIOTR [21]; Viola tricolor, 504 h, 20 g/ha)
100%: pest or weed control at 80 g/ha (ALOMY [2]; Alopecurus myosuroides, 504 h, 80 g/ha, pre-emergence, scored visually after 3 weeks vs untreated controls (100% = plants have died, 0% = like control plants)) | pest or weed control at 20 g/ha (AMARE [3]; Amaranthus retroflexus, 504 h, 20 g/ha, scored visually after 3 weeks vs untreated controls, 100% = plants have died, 0% = like control plants) | pest or weed control at 80 g/ha (AMARE [3]; Amaranthus retroflexus, 504 h, 80 g/ha, scored visually after 3 weeks vs untreated controls, 100% = plants have died, 0% = like control plants) | pest or weed control at 80 g/ha (ECHCG [5]; Echinochloa crus-galli, 504 h, 80 g/ha) | pest or weed control at 80 g/ha (MATIN [6]; Tripleurospermum inodorum, 504 h, dosage 80 g/ha) | pest or weed control at 80 g/ha (PHBPU [7]; Ipomoea purpurea, 504 h) | pest or weed control at 80 g/ha (SETVI [8]; Setaria viridis, 504 h, dosage 80 g/ha) | pest or weed control at 80 g/ha (VIOTR [10]; Viola tricolor, 504 h, dosage 80 g/ha) | pest or weed control at 20 g/ha (AMARE [14]; Amaranthus retroflexus, 504 h) | pest or weed control at 20 g/ha (ECHCG [16]; Echinochloa crus-galli, 504 h, dosage 20 g/ha) | pest or weed control at 20 g/ha (SETVI [19]; [24])
